According to US10414774B2, “Compound useful for altering the levels of bile acids for the treatment of diabetes and cardiometabolc disease” (Merck Sharp & Dohme Corp., priority 2016, dated 2019):

Molecular target: T1, Human CYP8B1 (Homo sapiens, UniProt Q9UNU6)
T1 sequence (Q9UNU6 1-501): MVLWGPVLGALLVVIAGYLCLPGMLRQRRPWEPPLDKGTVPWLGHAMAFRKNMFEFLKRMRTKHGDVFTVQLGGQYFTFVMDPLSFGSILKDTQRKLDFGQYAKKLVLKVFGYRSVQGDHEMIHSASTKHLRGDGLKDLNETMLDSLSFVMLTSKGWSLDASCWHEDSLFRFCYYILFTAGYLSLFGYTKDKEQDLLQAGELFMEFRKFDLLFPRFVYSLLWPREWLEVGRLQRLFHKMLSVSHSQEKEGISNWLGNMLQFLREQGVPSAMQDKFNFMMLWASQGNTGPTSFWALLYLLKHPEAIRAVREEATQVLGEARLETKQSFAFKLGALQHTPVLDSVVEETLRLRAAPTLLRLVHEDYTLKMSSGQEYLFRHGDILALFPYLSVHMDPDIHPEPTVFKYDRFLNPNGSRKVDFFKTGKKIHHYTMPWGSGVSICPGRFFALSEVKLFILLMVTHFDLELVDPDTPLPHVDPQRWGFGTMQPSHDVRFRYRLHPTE
Assay: Human CYP8B1 Liver Microsome Assay
Conditions: Human CYP8B1 IC50, human liver microsomes; substrate 7a-hydroxy-4-cholesten-3-one, NADPH; RapidFire MS detection of 7α,12α-dihydroxy-4-cholesten-3-one
Description: To a 384 well polypropylene plate (Corning 3656), 250 nl of inhibitor in 100% DMSO (1.25% final DMSO concentration) was pre-plated using an Echo liquid handler (Labcyte Inc.). Human liver microsomes (Xenotech) were diluted in of 0.1 M phosphate buffer, pH 7.4, at a concentration of 65 μg/ml and 15 μL was added to the 384 well plate. The plates were incubated at ambient room temperature for 30 minutes. After pre-incubation with inhibitor, the reaction was initiated by adding 5 μl of substrate solution (4.0 μM 7a-hydroxy-4-cholesten-3-one (Toronto Research Chemicals), 2 mM of NADPH (Sigma), 0.1 M phosphate buffer (pH 7.4). The reaction was carried out for 45 minutes at ambient room temperature and was quenched by the addition of 50 μl of acetonitrile+0.1% vol/vol formic acid (FA)+300 nM 7α-hydroxy-4-cholesten-3-one-d7 (Toronto Research Chemicals). The plates were sealed and centrifuged at 3000 rpm for 5 minutes. Plates were loaded onto the Agilent RapidFire RF300 HTMS system, wherein samples were sipped for 600 ms, and the sip sensor detection signals the diversion of sample from the loop onto a C4 solid phase extraction (SPE) cartridge, where salts are washed off for 2500 ms with a mobile phase of water with 0.1% vol/vol FA at a flow rate of 1.5 ml/min. The column path was switched, and the sample was eluted off the cartridge and flowed into the mass spectrometer for 3000 ms with a mobile phase of acetonitrile and 0.1% vol/vol FA at a flow rate of 1.25 ml/min. The aspirator tip was washed separately with water and acetonitrile between sample aspirations (each for 600 ms) to minimize carryover contamination. Mass spectrometry was carried out using a Sciex API4000 triple quadrupole mass spectrometer (Applied Biosystems, Concord, ON, Canada) equipped with electrospray ionization (ESI) operated in the positive-ion mode. The product 7α,12α-dihydroxy-4-cholesten-3-one and internal standard 7α-hydroxy-4-cholsten-3-one-d7 were detected using multiple reaction monitoring (MRM) with Q1/Q3 transitions at m/z 417.3 to 381.3 and m/z 408.3 to 390.3, respectively, with a dwell time of 100 ms and a collision energy of 24 V for each transition. The mass spectrometer used an ESI voltage of 5000 V and a source temperature of 650° C. Extracted ion chromatograms for each transition were integrated and processed using the RapidFire Integrator software. The data for each well were normalized by monitoring product conversion with the ratio of AUCproduct/(AUCinternal standard). The data was then fitted to a four parameter logistic fit using ActivityBase Software to calculate an IC50 of the inhibitor.

IC50 [nM]	Structure (SMILES)
0.2	C[C@@H]1CN(c2c(C#N)cnc3cc(-c4ccccc4)ccc23)CC[C@@H]1C(=O)N1CCn2c(nnc2C(F)(F)F)C1 [Example 90, 4-((3S,4S)-3-methyl-4-(3-(trifluoromethyl)-5,6,7,8-tetrahydro-[1,2,4]triazolo[4,3-a]pyrazine-7-carbonyl)piperidin-1-yl)-7-phenylquinoline-3-carbonitrile]
30	C[C@@H]1CN(c2c(C#N)cnc3ncc(Br)cc23)CC[C@@H]1C(=O)N1CCn2c(nnc2C(F)(F)F)C1 [Example 30, 6-bromo-4-[(3S,4S)-3-methyl-4-{[3-(trifluoromethyl)-5,6-dihydro[1,2,4]triazolo[4,3-a]pyrazin-7(8H)-yl]carbonyl}piperidin-1-yl]-1,8-naphthyridine-3-carbonitrile]
307	CC[C@H]1CN(c2c(C#N)cnc3ccc(Cl)cc23)CC[C@H]1C(=O)N1CCn2c(nnc2C(F)(F)F)C1 [Example 75a, 6-chloro-4-[(3R,4R)-3-ethyl-4-{[3-(trifluoromethyl)-5,6-dihydro[1,2,4]triazolo[4,3-a]pyrazin-7(8H)-yl]carbonyl}piperidin-1-yl]quinoline-3-carbonitrile]
2.9	C[C@@H]1CN(c2c(C#N)cnc3ccc(Cl)cc23)CCN1C(=O)N1CCn2c(nnc2C(F)(F)F)C1 [Example 128, 6-chloro-4-[(3R)-3-methyl-4-{[3-(trifluoromethyl)-5,6-dihydro[1,2,4]triazolo[4,3-a]pyrazin-7(8H)-yl]carbonyl}piperazin-1-yl]quinoline-3-carbonitrile]
58	COc1ccc2c(N3CC[C@H](C(=O)N4Cc5nnc(C(F)(F)F)n5C(C)(C)C4)[C@H](C)C3)c(C#N)cnc2c1F [Example 82, 4-((3S,4S)-4-(5,5-dimethyl-3-(trifluoromethyl)-5,6,7,8-tetrahydro-[1,2,4]triazolo[4,3-a]pyrazine-7-carbonyl)-3-methylpiperidin-1-yl)-8-fluoro-7-methoxyquinoline-3-carbonitrile]
0.38	C[C@@H]1CN(c2c(C#N)cnc3cc(C(F)(F)F)ccc23)CC[C@@H]1C(=O)N1CCn2c(nnc2C(F)(F)F)C1 [Example 16, 4-[(3S,4S)-3-methyl-4-{[3-(trifluoromethyl)-5,6-dihydro[1,2,4]triazolo[4,3-a]pyrazin-7(8H)-yl]carbonyl}piperidin-1-yl]-7-(trifluoromethyl)quinoline-3-carbonitrile]
1.2	CC1CN(c2c(C#N)cnc3ccc(F)cc23)CCC1C(=O)N1CCn2c(nnc2C(F)(F)F)C1 (stereo not shown) [Example 117, 6-fluoro-4-(3-methyl-4-{[3-(trifluoromethyl)-5,6-dihydro[1,2,4]triazolo[4,3-a]pyrazin-7(8H)-yl]carbonyl}piperidin-1-yl)quinoline-3-carbonitrile]
4.8	CC1CN(c2c(C#N)cnc3c(C(F)F)cc(Cl)cc23)CCC1C(=O)N1CCn2c(nnc2C(F)(F)F)C1 (stereo not shown) [Example 58]
4.81	C[C@@H]1CN(c2c(C#N)cnc3nc(C(F)(F)F)ccc23)CC[C@@H]1C(=O)N1CCn2c(nnc2C(F)(F)F)C1 [Example 21, 4-[(3S,4S)-3-methyl-4-{[3-(trifluoromethyl)-5,6-dihydro[1,2,4]triazolo[4,3-a]pyrazin-7(8H)-yl]carbonyl}piperidin-1-yl]-7-(trifluoromethyl)-1,8-naphthyridine-3-carbonitrile]
6.4	CC1CC(C(=O)N2CCn3c(nnc3C(F)(F)F)C2)CCN1c1c(C#N)cnc2ccc(Cl)cc12 (single isomer, unassigned) [Example 73a, 6-chloro-4-[(2R,4R) or (2S,4S)-2-methyl-4-{[3-(trifluoromethyl)-5,6-dihydro[1,2,4]triazolo[4,3-a]pyrazin-7(8H)-yl]carbonyl}piperidin-1-yl]quinoline-3-carbonitrile]
2210	CO[C@H]1CN(c2c(C#N)cnc3ccc(Cl)cc23)CC[C@H]1C(=O)N1CCn2c(nnc2C(F)(F)F)C1 [Example 72c, 6-chloro-4-[(3R,4R)-3-methoxy-4-{[3-(trifluoromethyl)-5,6-dihydro[1,2,4]triazolo[4,3-a]pyrazin-7(8H)-yl]carbonyl}piperidin-1-yl]quinoline-3-carbonitrile]
1	C[C@@H]1CN(c2c(C#N)cnc3cc(C(C)(F)F)ccc23)CC[C@@H]1C(=O)N1CCn2c(nnc2C(F)(F)F)C1 [Example 78, 7-(1,1-difluoroethyl)-4-[(3S,4S)-3-methyl-4-{[3-(trifluoromethyl)-5,6-dihydro[1,2,4]triazolo[4,3-a]pyrazin-7(8H)-yl]carbonyl}piperidin-1-yl]quinoline-3-carbonitrile]
52	Cc1nc2ccc(Cl)cc2c(N2CC[C@H](C(=O)N3CCn4cc(C(F)(F)F)nc4C3)[C@H](C)C2)c1C#N [Example 99, 6-chloro-2-methyl-4-[(3S,4S)-3-methyl-4-{[2-(trifluoromethyl)-5,6-dihydroimidazo[1,2-a]pyrazin-7(8H)-yl]carbonyl}piperidin-1-yl]quinoline-3-carbonitrile]
0.89	COc1ccc2c(N3CC[C@H](C(=O)N4CCn5c(nnc5C(F)(F)F)C4)[C@H](C)C3)c(C#N)c(C)nc2c1 [Example 34, 7-methoxy-2-methyl-4-[(3S,4S)-3-methyl-4-{[3-(trifluoromethyl)-5,6-dihdyro[1,2,4]triazolo[4,3-a]pyrazin-7(8H)-yl]carbonyl}piperidin-1-yl]quinoline-3-carbonitrile]
1.7	C[C@@H]1CN(c2c(C#N)cnc3c(Cl)cccc23)CC[C@@H]1C(=O)N1CCn2c(nnc2C(F)(F)F)C1 [Example 14, 8-chloro-4-[(3S,4S)-3-methyl-4-{[3-(trifluoromethyl)-5,6-dihydro[1,2,4]triazolo[4,3-a]pyrazin-7(8H)-yl]carbonyl}piperidin-1-yl]quinoline-3-carbonitrile]
23.2	N#Cc1cnc2ccc(Cl)cc2c1N1CCC(C(=O)N2CCn3c(nnc3C(F)(F)F)C2)CC1 [Example 103, 6-chloro-4-(4-(3-(trifluoromethyl)-5,6,7,8-tetrahydro-[1,2,4]triazolo[4,3-a]pyrazine-7-carbonyl)piperidin-1-yl)quinoline-3-carbonitrile]
0.4	C[C@@H]1CN(c2c(C#N)cnc3c(F)c(OC(F)F)ccc23)CC[C@@H]1C(=O)N1CCn2c(nnc2C(F)(F)F)C1 [Example 36, 7-(difluoromethoxy)-8-fluoro-4-[(3S,4S)-3-methyl-4-{[3-(trifluoromethyl)-5,6-dihdyro[1,2,4]triazolo[4,3-a]pyrazin-7(8H)-yl]carbonyl}piperidin-1-yl]quinoline-3-carbonitrile]
210	COc1nc2ccc(Cl)cc2c(N2CCC(C(=O)N3CCn4c(nnc4C(F)(F)F)C3)C(C)C2)c1C#N (stereo not shown) [Example 126, 6-chloro-2-methoxy-4-(3-methyl-4-{[3-(trifluoromethyl)-5,6-dihydro[1,2,4]triazolo[4,3-a]pyrazin-7(8H)-yl]carbonyl}piperidin-1-yl)quinoline-3-carbonitrile]
0.36	C[C@@H]1CN(c2c(C#N)cnc3cc(F)c(F)cc23)CC[C@@H]1C(=O)N1CCn2c(nnc2C(F)(F)F)C1 [Example 25, 6,7-difluoro-4-[(3S,4S)-3-methyl-4-{[3-(trifluoromethyl)-5,6-dihydro[1,2,4]triazolo[4,3-a]pyrazin-7(8H)-yl]carbonyl}piperidin-1-yl]quinoline-3-carbonitrile]
0.4	C[C@@H]1CN(c2c(C#N)cnc3ccc(Cl)cc23)CC[C@@H]1C(=O)N1CCn2c(nnc2C(F)(F)F)C1 (single isomer, unassigned) [Example 116a]
0.74	C[C@@H]1CN(c2c(C#N)cnc3cc(Cl)ccc23)CC[C@@H]1C(=O)N1CCn2c(nnc2C(F)(F)F)C1 [Example 27, 7-chloro-4-[(3S,4S)-3-methyl-4-{[3-(trifluoromethyl)-5,6-dihydro[1,2,4]triazolo[4,3-a]pyrazin-7(8H)-yl]carbonyl}piperidin-1-yl]quinoline-3-carbonitrile]
1730	Cc1nc2c(F)cc(F)cc2c(N2CCC(C(=O)N3CCn4c(nnc4C(F)(F)F)C3)CC2)c1C#N [Example 49, 6,8-difluoro-2-methyl-4-(4-(3-(trifluoromethyl)-5,6,7,8-tetrahydro-[1,2,4]triazolo[4,3-a]pyrazine-7-carbonyl)piperidin-1-yl)quinoline-3-carbonitrile]
3.3	COc1ccc2c(N3CCC(C(=O)N4CCn5c(C)nnc5C4)C(C)C3)c(C#N)cnc2c1 (stereo not shown) [Example 84, 7-methoxy-4-{3-methyl-4-[(3-methyl-5,6-dihydro[1,2,4]triazolo[4,3-a]pyrazin-7(8H)-yl)carbonyl]piperidin-1-yl}quinoline-3-carbonitrile]
1.1	C[C@@H]1CN(c2c(C#N)cnc3c(F)cccc23)CC[C@@H]1C(=O)N1CCn2c(nnc2C(F)(F)F)C1 [Example 12, 8-fluoro-4-[(3S,4S)-3-methyl-4-{[3-(trifluoromethyl)-5,6-dihydro[1,2,4]triazolo[4,3-a]pyrazin-7(8H)-yl]carbonyl}piperidin-1-yl]quinoline-3-carbonitrile]

Same assay, conditions: read-out: Human CYP8B1 IC50; human liver microsomes; substrate 7a-hydroxy-4-cholesten-3-one, NADPH; RapidFire MS detection of 7α,12α-dihydroxy-4-cholesten-3-one

IC50 [nM]	Structure (SMILES)
41.4	C[C@@H]1CN(c2c(C#N)cnc3ccc(C(F)(F)F)cc23)CC[C@@H]1C(=O)N1CCn2c(nnc2C(F)(F)F)C1 (single isomer, unassigned) [Example 119a]
